Legend:
[1] = system: 125 representative kinases; experiment: 125 kinase selectivity panel (overall); type: biochemical; conditions: 10 μM
Method: Kinase selectivity was evaluated at Eurofins Pharma Discovery Services using a selection of 125 representative kinases tested at a concentration of 10 μM in duplicate (S3 Table). IC50 values for selected activities were further characterized at 9 duplicate concentrations. DNA-PK activity was determined at the SelectScreen® Biochemical kinase Profiling Service of Thermo Fisher Scientific.

GSK3β = biological target: T1, GSK3β (Homo sapiens, UniProt P49841); experiment: kinase selectivity panel; type: biochemical; conditions: read-out: percentage of control activity (POC), GSK3β
T1 construct: purchased Eurofins Pharma Discovery Services (KinaseProfiler; Cerep BioPrint panel)
T1 sequence (P49841 whole entry): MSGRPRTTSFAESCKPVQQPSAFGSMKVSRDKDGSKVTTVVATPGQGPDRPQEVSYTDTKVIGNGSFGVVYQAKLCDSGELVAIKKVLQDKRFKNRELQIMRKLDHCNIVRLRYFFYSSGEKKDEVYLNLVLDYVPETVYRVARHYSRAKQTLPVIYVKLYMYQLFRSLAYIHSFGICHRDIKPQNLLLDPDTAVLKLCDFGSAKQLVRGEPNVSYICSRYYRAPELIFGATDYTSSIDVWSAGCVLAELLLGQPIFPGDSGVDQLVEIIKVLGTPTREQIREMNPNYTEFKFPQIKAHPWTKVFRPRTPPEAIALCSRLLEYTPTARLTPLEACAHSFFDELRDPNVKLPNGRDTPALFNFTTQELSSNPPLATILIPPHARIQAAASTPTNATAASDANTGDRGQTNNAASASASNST
Method in brief: (§1)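 IC50 values derive from 9 duplicate concentrations, run only for activities picked after an initial 10 μM duplicate screen across 125 representative kinases.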

IGF-1R = biological target: T2, IGF-1R (Homo sapiens, UniProt P08069); experiment: kinase selectivity panel; type: biochemical; conditions: read-out: percentage of control activity (POC), IGF-1R
T2 construct: purchased Eurofins Pharma Discovery Services (KinaseProfiler; Cerep BioPrint panel)
T2 sequence (P08069 31-1367): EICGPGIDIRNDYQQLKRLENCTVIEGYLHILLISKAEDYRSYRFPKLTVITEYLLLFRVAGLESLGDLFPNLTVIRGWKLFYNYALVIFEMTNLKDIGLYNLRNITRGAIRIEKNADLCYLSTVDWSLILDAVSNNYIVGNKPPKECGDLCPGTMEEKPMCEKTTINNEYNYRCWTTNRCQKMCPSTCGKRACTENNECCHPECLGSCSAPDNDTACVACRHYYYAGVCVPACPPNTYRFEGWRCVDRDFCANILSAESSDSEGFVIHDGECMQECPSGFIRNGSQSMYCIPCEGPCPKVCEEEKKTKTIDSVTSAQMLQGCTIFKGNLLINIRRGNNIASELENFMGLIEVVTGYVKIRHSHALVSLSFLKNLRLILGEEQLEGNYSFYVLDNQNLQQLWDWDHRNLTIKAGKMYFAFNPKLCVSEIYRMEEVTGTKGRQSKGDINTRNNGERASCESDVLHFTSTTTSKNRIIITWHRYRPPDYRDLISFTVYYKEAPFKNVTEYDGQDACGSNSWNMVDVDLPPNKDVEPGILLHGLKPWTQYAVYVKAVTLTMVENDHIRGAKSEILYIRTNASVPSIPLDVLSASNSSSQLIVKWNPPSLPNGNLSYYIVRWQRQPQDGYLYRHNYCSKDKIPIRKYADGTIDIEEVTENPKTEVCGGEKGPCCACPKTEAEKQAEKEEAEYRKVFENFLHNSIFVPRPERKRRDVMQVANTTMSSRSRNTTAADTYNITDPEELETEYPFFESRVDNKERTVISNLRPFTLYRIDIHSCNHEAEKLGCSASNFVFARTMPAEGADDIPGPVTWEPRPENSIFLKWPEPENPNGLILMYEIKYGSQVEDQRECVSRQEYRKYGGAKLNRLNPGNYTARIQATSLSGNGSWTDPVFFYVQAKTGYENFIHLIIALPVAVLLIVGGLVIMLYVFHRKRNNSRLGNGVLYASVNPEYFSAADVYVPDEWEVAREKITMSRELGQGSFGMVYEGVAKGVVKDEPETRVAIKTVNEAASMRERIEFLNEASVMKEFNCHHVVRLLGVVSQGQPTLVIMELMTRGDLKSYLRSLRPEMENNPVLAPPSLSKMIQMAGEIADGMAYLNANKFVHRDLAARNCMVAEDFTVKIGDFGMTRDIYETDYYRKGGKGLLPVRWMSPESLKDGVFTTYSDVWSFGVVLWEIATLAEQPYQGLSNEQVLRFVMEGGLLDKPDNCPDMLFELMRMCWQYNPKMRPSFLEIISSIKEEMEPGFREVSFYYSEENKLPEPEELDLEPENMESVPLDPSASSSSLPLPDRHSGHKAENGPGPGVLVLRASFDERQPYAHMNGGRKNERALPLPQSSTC
Method in brief: as §1

MST1 = biological target: T3, MST1 (Homo sapiens, UniProt Q13043); experiment: kinase selectivity panel; type: biochemical; conditions: read-out: percentage of control activity (POC), MST1
T3 construct: purchased Eurofins Pharma Discovery Services (KinaseProfiler; Cerep BioPrint panel)
T3 sequence (Q13043 1-487): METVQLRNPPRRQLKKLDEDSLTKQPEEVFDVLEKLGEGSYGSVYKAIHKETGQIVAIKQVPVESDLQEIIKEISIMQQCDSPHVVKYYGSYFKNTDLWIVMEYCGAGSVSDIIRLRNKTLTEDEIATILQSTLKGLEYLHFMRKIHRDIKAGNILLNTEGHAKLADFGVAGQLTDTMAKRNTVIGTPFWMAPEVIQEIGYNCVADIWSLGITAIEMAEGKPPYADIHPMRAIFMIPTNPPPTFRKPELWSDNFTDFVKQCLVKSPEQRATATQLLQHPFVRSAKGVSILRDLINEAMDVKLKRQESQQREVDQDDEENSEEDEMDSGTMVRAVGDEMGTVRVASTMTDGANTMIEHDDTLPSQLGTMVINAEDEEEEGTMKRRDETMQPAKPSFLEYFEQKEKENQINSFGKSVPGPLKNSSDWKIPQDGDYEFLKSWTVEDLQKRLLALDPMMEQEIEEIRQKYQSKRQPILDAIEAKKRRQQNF
Method in brief: as §1

PDGFRβ = biological target: T4, PDGFRβ (Homo sapiens, UniProt P09619); experiment: kinase selectivity panel; type: biochemical; conditions: read-out: percentage of control activity (POC), PDGFRβ
T4 construct: purchased Eurofins Pharma Discovery Services (KinaseProfiler; Cerep BioPrint panel)
T4 sequence (P09619 33-1106): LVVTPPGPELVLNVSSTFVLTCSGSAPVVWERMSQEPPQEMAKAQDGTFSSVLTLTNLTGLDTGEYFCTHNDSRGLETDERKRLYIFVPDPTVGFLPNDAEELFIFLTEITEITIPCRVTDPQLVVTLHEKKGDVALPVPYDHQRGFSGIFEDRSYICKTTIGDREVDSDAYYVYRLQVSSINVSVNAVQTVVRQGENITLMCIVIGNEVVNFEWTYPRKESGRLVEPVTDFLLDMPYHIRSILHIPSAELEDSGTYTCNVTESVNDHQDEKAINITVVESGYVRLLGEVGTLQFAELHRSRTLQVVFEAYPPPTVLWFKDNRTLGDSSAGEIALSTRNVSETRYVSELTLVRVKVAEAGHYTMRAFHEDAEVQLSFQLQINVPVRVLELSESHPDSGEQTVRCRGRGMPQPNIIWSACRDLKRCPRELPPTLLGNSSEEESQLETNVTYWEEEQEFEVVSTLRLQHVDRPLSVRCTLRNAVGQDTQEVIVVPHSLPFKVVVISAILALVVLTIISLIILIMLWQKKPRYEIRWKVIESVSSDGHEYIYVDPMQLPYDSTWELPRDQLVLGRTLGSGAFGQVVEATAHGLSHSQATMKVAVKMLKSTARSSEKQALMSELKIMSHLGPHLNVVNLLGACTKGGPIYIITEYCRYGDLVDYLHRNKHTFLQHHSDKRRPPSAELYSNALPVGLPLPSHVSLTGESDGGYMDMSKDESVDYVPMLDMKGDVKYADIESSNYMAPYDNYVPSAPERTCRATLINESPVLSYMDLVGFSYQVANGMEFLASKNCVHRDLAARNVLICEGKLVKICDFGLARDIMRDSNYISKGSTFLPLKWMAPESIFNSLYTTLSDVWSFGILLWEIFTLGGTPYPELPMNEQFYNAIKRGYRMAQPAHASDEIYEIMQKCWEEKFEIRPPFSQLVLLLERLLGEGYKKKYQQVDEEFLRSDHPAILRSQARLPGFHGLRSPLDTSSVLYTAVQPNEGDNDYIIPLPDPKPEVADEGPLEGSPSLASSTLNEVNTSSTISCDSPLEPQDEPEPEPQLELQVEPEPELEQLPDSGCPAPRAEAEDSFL
Method in brief: as §1

TBK1 = biological target: T5, TBK1 (Homo sapiens, UniProt Q9UHD2); experiment: kinase selectivity panel; type: biochemical; conditions: read-out: percentage of control activity (POC), TBK1
T5 construct: purchased Eurofins Pharma Discovery Services (KinaseProfiler; Cerep BioPrint panel)
T5 sequence (Q9UHD2 1-729): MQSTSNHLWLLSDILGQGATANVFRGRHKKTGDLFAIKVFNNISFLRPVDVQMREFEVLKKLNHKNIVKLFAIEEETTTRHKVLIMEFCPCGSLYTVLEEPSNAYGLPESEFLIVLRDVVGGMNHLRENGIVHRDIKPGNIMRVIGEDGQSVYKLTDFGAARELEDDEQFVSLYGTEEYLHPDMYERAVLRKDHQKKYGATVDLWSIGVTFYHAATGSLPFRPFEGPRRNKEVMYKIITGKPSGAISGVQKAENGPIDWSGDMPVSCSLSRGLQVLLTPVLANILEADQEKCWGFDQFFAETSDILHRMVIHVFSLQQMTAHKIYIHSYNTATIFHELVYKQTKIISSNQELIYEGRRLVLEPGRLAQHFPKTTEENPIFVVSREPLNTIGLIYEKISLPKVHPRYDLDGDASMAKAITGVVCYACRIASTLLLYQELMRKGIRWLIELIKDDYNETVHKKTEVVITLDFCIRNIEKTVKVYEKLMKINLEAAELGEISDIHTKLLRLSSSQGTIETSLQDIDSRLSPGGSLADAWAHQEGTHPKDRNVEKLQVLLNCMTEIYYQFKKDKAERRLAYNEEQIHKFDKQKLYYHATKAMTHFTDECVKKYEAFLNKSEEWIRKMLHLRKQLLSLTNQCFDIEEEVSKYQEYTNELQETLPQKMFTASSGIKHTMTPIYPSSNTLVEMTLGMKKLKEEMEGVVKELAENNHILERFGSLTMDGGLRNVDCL
Method in brief: as §1

CRF1 = biological target: T6, CRF1 (Homo sapiens, UniProt P34998); experiment: BioPrint panel: CRF1 (h) (agonist); type: binding; conditions: 1 micromolar, read-out: percentage of inhibition of activity
T6 construct: purchased Eurofins Pharma Discovery Services (KinaseProfiler; Cerep BioPrint panel)
From the text: (§2) Supplement pone.0189247.s004.xlsx, sheet "Bioprint Selectivity Panel" | column: %

TNF-alpha = experiment: BioPrint panel: TNF-alpha (h) (agonist); type: binding, human; conditions: 1 micromolar
From the text: as §2

H2 = biological target: T7, H2 (Homo sapiens, UniProt P25021); experiment: BioPrint panel: H2 (h) (antagonist); type: binding; conditions: 1 micromolar, read-out: percentage of inhibition of activity
T7 construct: purchased Eurofins Pharma Discovery Services (KinaseProfiler; Cerep BioPrint panel)
From the text: as §2

BLT1 (LTB4) = biological target: T8, BLT1 (LTB4) (Homo sapiens, UniProt Q15722); experiment: BioPrint panel: BLT1 (LTB4) (h) (agonist); type: binding; conditions: 1 micromolar, read-out: percentage of inhibition of activity
T8 construct: purchased Eurofins Pharma Discovery Services (KinaseProfiler; Cerep BioPrint panel)
T8 sequence (Q15722 whole entry): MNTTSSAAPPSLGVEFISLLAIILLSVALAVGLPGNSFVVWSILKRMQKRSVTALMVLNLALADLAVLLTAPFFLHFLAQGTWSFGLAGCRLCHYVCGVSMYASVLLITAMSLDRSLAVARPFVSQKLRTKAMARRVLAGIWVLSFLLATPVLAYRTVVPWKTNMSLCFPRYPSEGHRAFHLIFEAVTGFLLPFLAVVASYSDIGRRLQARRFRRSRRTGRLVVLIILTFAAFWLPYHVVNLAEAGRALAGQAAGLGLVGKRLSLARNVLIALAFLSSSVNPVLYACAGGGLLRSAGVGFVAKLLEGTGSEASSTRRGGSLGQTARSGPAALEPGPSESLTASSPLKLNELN
From the text: as §2

MC4 = biological target: T9, MC4 (Homo sapiens, UniProt P32245); experiment: BioPrint panel: MC4 (h) (agonist); type: binding; conditions: 1 micromolar, read-out: percentage of inhibition of activity
T9 construct: purchased Eurofins Pharma Discovery Services (KinaseProfiler; Cerep BioPrint panel)
T9 sequence (P32245 whole entry): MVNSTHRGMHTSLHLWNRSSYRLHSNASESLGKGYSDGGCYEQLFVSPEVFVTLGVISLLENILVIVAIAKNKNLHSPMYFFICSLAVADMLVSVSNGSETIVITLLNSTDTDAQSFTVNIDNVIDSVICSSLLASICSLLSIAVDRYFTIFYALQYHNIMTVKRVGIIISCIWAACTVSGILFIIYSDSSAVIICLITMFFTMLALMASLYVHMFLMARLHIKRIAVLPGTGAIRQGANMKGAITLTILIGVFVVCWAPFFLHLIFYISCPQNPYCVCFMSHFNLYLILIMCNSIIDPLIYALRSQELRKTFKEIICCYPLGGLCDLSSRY
From the text: as §2

motilin = biological target: T10, motilin (Homo sapiens, UniProt O43193); experiment: BioPrint panel: motilin (h) (agonist); type: binding; conditions: 1 micromolar, read-out: percentage of inhibition of activity
T10 construct: purchased Eurofins Pharma Discovery Services (KinaseProfiler; Cerep BioPrint panel)
T10 sequence (O43193 whole entry): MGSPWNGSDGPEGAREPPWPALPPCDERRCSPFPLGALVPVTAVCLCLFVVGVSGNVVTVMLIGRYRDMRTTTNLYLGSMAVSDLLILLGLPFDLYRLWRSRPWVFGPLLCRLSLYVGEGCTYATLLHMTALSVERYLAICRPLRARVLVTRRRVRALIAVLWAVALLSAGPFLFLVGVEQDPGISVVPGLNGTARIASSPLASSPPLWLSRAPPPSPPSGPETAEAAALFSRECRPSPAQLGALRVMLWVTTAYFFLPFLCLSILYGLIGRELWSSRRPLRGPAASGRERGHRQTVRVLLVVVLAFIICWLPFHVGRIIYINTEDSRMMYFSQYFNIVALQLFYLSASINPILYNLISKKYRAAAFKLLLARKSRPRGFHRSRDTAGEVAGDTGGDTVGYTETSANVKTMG
From the text: as §2

NK2 = biological target: T11, NK2 (Homo sapiens, UniProt P21452); experiment: BioPrint panel: NK2 (h) (agonist); type: binding; conditions: 1 micromolar, read-out: percentage of inhibition of activity
T11 construct: purchased Eurofins Pharma Discovery Services (KinaseProfiler; Cerep BioPrint panel)
From the text: as §2

NOP (ORL1) = biological target: T12, NOP (ORL1) (Homo sapiens, UniProt P41146); experiment: BioPrint panel: NOP (ORL1) (h) (agonist); type: binding; conditions: 1 micromolar, read-out: percentage of inhibition of activity
T12 construct: purchased Eurofins Pharma Discovery Services (KinaseProfiler; Cerep BioPrint panel)
From the text: as §2

PPARgamma = biological target: T13, PPARgamma (Homo sapiens, UniProt P37231); experiment: BioPrint panel: PPARgamma (h) (agonist); type: binding; conditions: 1 micromolar, read-out: percentage of inhibition of activity
T13 construct: purchased Eurofins Pharma Discovery Services (KinaseProfiler; Cerep BioPrint panel)
From the text: as §2

[2] = biological target: T14, choline transporter (CHT1) (Homo sapiens, UniProt Q9GZV3); experiment: BioPrint panel: choline transporter (CHT1) (h) (antagonist); type: binding; conditions: 1 micromolar, read-out: percentage of inhibition of activity
T14 construct: purchased Eurofins Pharma Discovery Services (KinaseProfiler; Cerep BioPrint panel)
From the text: as §2

COX2 = biological target: T15, COX2 (Homo sapiens, UniProt P35354); experiment: BioPrint panel: COX2 (h); type: biochemical; conditions: 1 micromolar, read-out: percentage of inhibition of activity
T15 construct: purchased Eurofins Pharma Discovery Services (KinaseProfiler; Cerep BioPrint panel)
From the text: as §2

HIV-1 protease = experiment: BioPrint panel: HIV-1 protease; type: biochemical; conditions: 1 micromolar
From the text: as §2

MMP-9 = biological target: T16, MMP-9 (Homo sapiens, UniProt P14780); experiment: BioPrint panel: MMP-9 (h); type: biochemical; conditions: 1 micromolar, read-out: percentage of inhibition of activity
T16 construct: purchased Eurofins Pharma Discovery Services (KinaseProfiler; Cerep BioPrint panel)
From the text: as §2

Abl = biological target: T17, Abl (Homo sapiens, UniProt P00519); experiment: BioPrint panel: Abl kinase (h); type: biochemical; conditions: 1 micromolar, read-out: percentage of inhibition of activity
T17 construct: purchased Eurofins Pharma Discovery Services (KinaseProfiler; Cerep BioPrint panel)
T17 sequence (P00519 whole entry): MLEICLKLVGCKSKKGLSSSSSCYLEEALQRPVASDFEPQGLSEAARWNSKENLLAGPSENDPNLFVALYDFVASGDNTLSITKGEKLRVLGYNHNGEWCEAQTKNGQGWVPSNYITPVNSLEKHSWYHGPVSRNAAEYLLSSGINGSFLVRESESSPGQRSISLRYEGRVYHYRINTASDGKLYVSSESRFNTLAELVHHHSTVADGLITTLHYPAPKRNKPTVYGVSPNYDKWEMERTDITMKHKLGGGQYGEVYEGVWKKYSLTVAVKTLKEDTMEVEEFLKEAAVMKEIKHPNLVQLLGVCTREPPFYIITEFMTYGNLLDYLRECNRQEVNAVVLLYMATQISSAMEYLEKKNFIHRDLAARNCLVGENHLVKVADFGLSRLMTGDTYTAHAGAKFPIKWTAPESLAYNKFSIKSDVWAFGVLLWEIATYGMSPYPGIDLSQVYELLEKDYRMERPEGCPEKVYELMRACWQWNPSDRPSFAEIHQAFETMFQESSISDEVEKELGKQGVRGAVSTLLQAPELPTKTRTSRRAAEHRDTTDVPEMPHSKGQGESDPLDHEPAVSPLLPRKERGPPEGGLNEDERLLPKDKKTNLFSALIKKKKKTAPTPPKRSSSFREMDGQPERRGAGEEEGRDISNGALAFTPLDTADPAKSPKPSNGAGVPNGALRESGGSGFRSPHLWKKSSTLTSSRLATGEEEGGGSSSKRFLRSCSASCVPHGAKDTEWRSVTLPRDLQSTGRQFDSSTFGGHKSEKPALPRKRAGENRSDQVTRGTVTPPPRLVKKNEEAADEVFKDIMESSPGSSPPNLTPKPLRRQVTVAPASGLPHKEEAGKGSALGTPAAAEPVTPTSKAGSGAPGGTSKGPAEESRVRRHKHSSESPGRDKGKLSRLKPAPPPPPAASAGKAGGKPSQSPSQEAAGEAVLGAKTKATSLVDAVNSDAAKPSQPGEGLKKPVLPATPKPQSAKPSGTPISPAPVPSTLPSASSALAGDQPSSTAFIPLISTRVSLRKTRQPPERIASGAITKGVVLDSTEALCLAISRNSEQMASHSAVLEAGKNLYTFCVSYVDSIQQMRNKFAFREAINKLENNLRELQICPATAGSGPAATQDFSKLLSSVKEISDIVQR
From the text: as §2

CDK2 (cycA) = biological target: T18, CDK2 (cycA) (Homo sapiens, UniProt P24941); experiment: BioPrint panel: CDK2 (h) (cycA); type: biochemical; conditions: 1 micromolar, read-out: percentage of inhibition of activity
T18 construct: purchased Eurofins Pharma Discovery Services (KinaseProfiler; Cerep BioPrint panel)
From the text: as §2

Fyn = biological target: T19, Fyn (Homo sapiens, UniProt P06241); experiment: BioPrint panel: Fyn kinase (h); type: biochemical; conditions: 1 micromolar, read-out: percentage of inhibition of activity
T19 construct: purchased Eurofins Pharma Discovery Services (KinaseProfiler; Cerep BioPrint panel)
From the text: as §2

Row | inhibition in the rest of the panel [1] | remaining activity at 10 µM (GSK3β) | remaining activity at 10 µM (IGF-1R) | remaining activity at 10 µM (MST1) | remaining activity at 10 µM (PDGFRβ) | remaining activity at 10 µM (TBK1) | SMILES | further results
1 | less than 50% | 99% | 113% | 103% | 70% | 108% | CC(C)(C)N1CCC(c2cc(-c3ccc(F)cc3Cl)c3cc[n+]([O-])c(-c4c(Cl)cccc4Cl)c3n2)CC1 [compound 2] | 
2 | less than 50% | 104% | 89% | 88% | 61% | 92% | Cc1ccc(C(=O)NCC2CC2)cc1-c1ccc2c(c1)NC(=O)C21CCCC1 [compound 3] | 
3 |  | 117% | 123% | 101% | 82% | 103% | COc1c(NC(=O)c2ccc(C)c(-c3nnc4c(NCC(C)(C)C)nccn34)c2)cc(C(C)(C)C)cc1NS(C)(=O)=O [compound 7, reference compound] | 

Continued, compound first:

Row | SMILES | inhibition in the rest of the panel [1] | remaining activity at 10 µM (GSK3β) | remaining activity at 10 µM (IGF-1R) | remaining activity at 10 µM (MST1) | remaining activity at 10 µM (PDGFRβ) | remaining activity at 10 µM (TBK1) | further results
4 | Cn1cc(-c2cccc(-c3nc(C(=O)NC4C5CC6CC4CC(O)(C6)C5)c(N)nc3N)c2)cn1 (stereo not shown) [compound 4] |  | 105% | 94% | 58% | 63% | 90% | inhibition at 1 µM (CRF1): -37%; percentage of inhibition of activity (TNF-alpha): -2.1%; inhibition at 1 µM (H2): 0%; inhibition at 1 µM (BLT1 (LTB4)): 14.2%; inhibition at 1 µM (MC4): -5.1%; inhibition at 1 µM (motilin): -4.9%; inhibition at 1 µM (NK2): -1.8%; inhibition at 1 µM (NOP (ORL1)): 12.3%; inhibition at 1 µM (PPARgamma): 3.2%; inhibition at 1 µM [2]: 3%; inhibition at 1 µM (COX2): -12.1%; percentage of inhibition of activity (HIV-1 protease): -16.1%; inhibition at 1 µM (MMP-9): -4.4%; inhibition at 1 µM (Abl): -4.6%; inhibition at 1 µM (CDK2 (cycA)): -7.9%; inhibition at 1 µM (Fyn): -9.2%
5 | CS(=O)(=O)N1CCN(c2ccc(Nc3ncc(C(N)=O)c(NC4CC4)n3)cc2)CC1 [compound 5] |  | 25% | 64% | -1% | 16% | -1% | 

From article PMC5761851, “Application of a phenotypic drug discovery strategy to identify biological and chemical starting points for inhibition of TSLP production in lung epithelial cells” (PLoS ONE, 2018)
